Source: ChEMBL document CHEMBL1130695, “Biologically selective potassium channel openers having 1,1-diethylpropyl group” (1998)

How the values were obtained:
Cavia porcellus [1] = species on record: Cavia porcellus; assay: Compound was tested for relaxant activity in trachea for asthma in male guinea pigs; assay type: functional
Cavia porcellus [2] = species on record: Cavia porcellus; assay: Compound was tested for relaxant activity in urinary bladder for urinary incontinence in male guinea pigs; assay type: functional
Cavia porcellus [3] = species on record: Cavia porcellus; assay: Compound was tested for relaxant activity in taenia caecum; assay type: functional; conditions: read-out: ED50 (the source's name)
Canis familiaris = assay: Compound was tested for the antihypertensive activity in dogs by intravenous injection at a dose of 30 ug/kg; assay type: functional, Canis lupus familiaris
Cavia porcellus [4] = species on record: Cavia porcellus; assay: Compound was tested for relaxant activity in urinary bladder for urinary incontinence in male guinea pigs at 1 uM concentration; assay type: functional; set-up: scale not given: the % may be the effect or the level left

Question: With `CCC(C)(CC)/N=C(\NC#N)Nc1cc(Cl)cc(Cl)c1` as the molecule, how does the ED50 (Cavia porcellus [1]) read?
Answer: 440 nM

Question: And the ED50 (Cavia porcellus [2])?
Answer: 13 nM

Question: `CCC(C)(CC)/N=C(\NC#N)Nc1cc(Cl)cc(C#N)c1` was tested. Which EC50 (Cavia porcellus [3]) did it give?
Answer: 100 nM

Question: What about the AHA (Canis familiaris) of the same molecule?
Answer: -25.2 delta mmHg

Question: What about the ED50 (Cavia porcellus [1]) of the same molecule?
Answer: 190 nM

Question: What about the ED50 (Cavia porcellus [2]) of the same molecule?
Answer: 16 nM

Question: `CCC(C)(C)/N=C(\NC#N)Nc1cc(F)cc(Br)c1` was tested. Which ED50 (Cavia porcellus [1]) did it give?
Answer: 180 nM

Question: And the ED50 (Cavia porcellus [2])?
Answer: 16 nM

Question: Which results are given for `CCC(CC)(CC)/N=C(\NC#N)Nc1cc(Cl)cc(C#N)c1`?
Answer: EC50 (Cavia porcellus [3]): 94 nM; Activity (Cavia porcellus [4]): 22%; AHA (Canis familiaris): -18.9 delta mmHg; ED50 (Cavia porcellus [1]): 5600 nM; ED50 (Cavia porcellus [2]): >1000 nM

Question: `CCC(C)(C)/N=C(\NC#N)Nc1cc(Br)cc(C#N)c1` was tested. Which EC50 (Cavia porcellus [3]) did it give?
Answer: 32 nM

Question: What about the ED50 (Cavia porcellus [1]) of the same molecule?
Answer: 80 nM

Question: What about the ED50 (Cavia porcellus [2]) of the same molecule?
Answer: 11 nM

Question: For `CC(C)C(C)(C)/N=C(\NC#N)Nc1cc(Cl)cc(C#N)c1`, which EC50 (Cavia porcellus [3]) is on record?
Answer: 170 nM

Question: What about the AHA (Canis familiaris) of the same molecule?
Answer: -20.3 delta mmHg

Question: And the ED50 (Cavia porcellus [1])?
Answer: 690 nM

Question: And the ED50 (Cavia porcellus [2])?
Answer: 190 nM

Question: Which results are given for `CCC(C)(C)/N=C(\NC#N)Nc1cc(Cl)cc(C#N)c1`?
Answer: EC50 (Cavia porcellus [3]): 75 nM; AHA (Canis familiaris): -29.8 delta mmHg; ED50 (Cavia porcellus [1]): 280 nM; ED50 (Cavia porcellus [2]): 20 nM

Question: For `CCC(C)(C)/N=C(\NC#N)Nc1cc(F)cc(Cl)c1`, which ED50 (Cavia porcellus [1]) is on record?
Answer: 260 nM

Question: What about the ED50 (Cavia porcellus [2]) of the same molecule?
Answer: 32 nM

Question: With `CCC(CC)(CC)/N=C(\NC#N)Nc1cc(Cl)cc(Cl)c1` as the molecule, how does the Activity (Cavia porcellus [4]) read?
Answer: <5%

Question: What about the AHA (Canis familiaris) of the same molecule?
Answer: -15.9 delta mmHg

Question: And the ED50 (Cavia porcellus [1])?
Answer: 30000 nM

Question: What about the ED50 (Cavia porcellus [2]) of the same molecule?
Answer: >1000 nM

Question: What does the source list for `CC1(C)Oc2ccc(C#N)cc2[C@@H](N2CCCC2=O)[C@@H]1O` [CROMAKALIM]?
Answer: EC50 (Cavia porcellus [3]): 470 nM; AHA (Canis familiaris): -37.8 delta mmHg; ED50 (Cavia porcellus [1]): 1200 nM; ED50 (Cavia porcellus [2]): 42 nM

Question: With `CC(N/C(=N\C#N)Nc1ccncc1)C(C)(C)C` (stereo unspecified) [PINACIDIL ANHYDROUS] as the molecule, how does the ED50 (Cavia porcellus [1]) read?
Answer: 2300 nM

Question: And the ED50 (Cavia porcellus [2])?
Answer: 310 nM
